Legend:
[1] = 101.33 kPa, Liquid; for electrical conductivity: PICO digital conductivity meter; for speed of sound: Sing-around technique in a fixed-path interferometer; for mass density: Vibrating tube method
[2] = refractive index (Na D-line) (dimensionless); conditions: 101.33 kPa, Liquid, Standard Abbe refractometry

CCn1cc[n+](C)c1.O=S(=O)([N-]S(=O)(=O)C(F)(F)F)C(F)(F)F
Conditions	electrical conductivity, [1] [S/m]	mass density, [1] [kg/m3]	refractive index, [2]	speed of sound, [1] [m/s]
293.15 K	0.854	1521.47	1.42425	1251.2
298.15 K	0.947	1516.39	1.42286	1240.3
303.15 K	1.07	1511.32	1.42142	1229.4
308.15 K	1.19	1506.27	1.41997	1218.5
313.15 K	1.33	1501.23	1.4185	1207.8
318.15 K	1.48	1496.21	1.41705	1197.2
323.15 K	1.64	1491.21	1.41555	1186.7
